In patent US8063071B2 (GlaxoSmithKline, LLC, priority 2007, dated 2011):
Counter-ions that a name gives are not always drawn.

How the values were obtained:
[1] = target: T1, Recombinant human IKKβ (residues 1-737) (Homo sapiens, UniProt O14920); assay: IKK2 assay (TR-FRET); assay type: biochemical; settings: ATP 1 μM final, read-out: pIC50 against IKK2 (converted)
T1 construct: Recombinant human IKKβ (residues 1-737); GST (C); made in house
T1 sequence (O14920 1-737): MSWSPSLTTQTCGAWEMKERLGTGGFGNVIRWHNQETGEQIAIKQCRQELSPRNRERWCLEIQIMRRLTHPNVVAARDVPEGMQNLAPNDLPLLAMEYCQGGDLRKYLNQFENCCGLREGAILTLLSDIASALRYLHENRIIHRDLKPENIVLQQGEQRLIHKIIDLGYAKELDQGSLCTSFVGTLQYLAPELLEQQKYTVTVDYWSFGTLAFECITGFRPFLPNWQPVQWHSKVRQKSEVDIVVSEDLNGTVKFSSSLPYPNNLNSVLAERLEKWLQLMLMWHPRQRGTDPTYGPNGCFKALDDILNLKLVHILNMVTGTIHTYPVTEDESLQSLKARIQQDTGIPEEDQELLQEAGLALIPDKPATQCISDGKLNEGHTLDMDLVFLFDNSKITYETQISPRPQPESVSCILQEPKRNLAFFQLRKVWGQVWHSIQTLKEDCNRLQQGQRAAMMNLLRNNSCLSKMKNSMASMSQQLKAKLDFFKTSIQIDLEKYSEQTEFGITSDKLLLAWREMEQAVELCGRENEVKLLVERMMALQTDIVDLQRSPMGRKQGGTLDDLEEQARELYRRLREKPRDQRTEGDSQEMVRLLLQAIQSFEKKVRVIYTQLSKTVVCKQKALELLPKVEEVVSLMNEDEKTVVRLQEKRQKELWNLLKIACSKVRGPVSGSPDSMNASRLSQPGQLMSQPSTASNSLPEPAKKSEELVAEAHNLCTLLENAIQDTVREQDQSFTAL
In short: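 TR-FRET readout (665 nm over 620 nm Eu reference) of GST-IB Ser32/36 phosphorylation after 60 min detection. Reaction: 1 μM ATP, 25 nM substrate, 0.5-5 nM GST-fused IKKβ 1-737 from baculovirus, pH 7.4 HEPES buffer, 1.7% DMSO, 15 min room temperature, EDTA-terminated.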

[2] = test system: human monocyte stimulated cytokine production (TNF-α); assay: Monocyte assay (LPS-stimulated TNF-α production); assay type: cell-based; settings: 24 h, 200 ng/mL LPS, TNF-α by ELISA
In short: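 TNF-α release was measured by ELISA after 24 hrs at 37 C. Cells were stimulated with 200 ng/mL E. coli LPS, with compound added 30 minutes beforehand (0.1% DMSO vehicle). Cells were Ficoll/MACS-isolated CD14+ human monocytes adhered at 1×10^6 cells/mL, and viability was checked by trypan blue.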

SMILES	IC50 [1] [µM]	IC50 [2] [nM]
CCS(=O)(=O)N1CCC(c2c[nH]c3c(C(N)=O)cc(-c4ccc(CCNC(=O)C5CCC5)cc4)cc23)CC1 [Example 132, 5-(4-{2-[(cyclobutylcarbonyl)amino]ethyl}phenyl)-3-[1-(ethylsulfonyl)-4-piperidinyl]-1H-indole-7-carboxamide]	≤ 10	> 1000
CCS(=O)(=O)N1CCC(c2c[nH]c3c(C(N)=O)cc(-c4ccc(CCNC(=O)C5CCCCC5)cc4)cc23)CC1 [Example 133, 5-(4-{2-[(cyclohexylcarbonyl)amino]ethyl}phenyl)-3-[1-(ethylsulfonyl)-4-piperidinyl]-1H-indole-7-carboxamide]	≤ 10	> 1000
CCS(=O)(=O)N1CCC(c2c[nH]c3c(C(N)=O)cc(-c4cccc(CCNC(=O)C5CCCCC5)c4)cc23)CC1 [Example 134, 5-(3-{2-[(cyclohexylcarbonyl)amino]ethyl}phenyl)-3-[1-(ethylsulfonyl)-4-piperidinyl]-1H-indole-7-carboxamide]	≤ 10	> 1000
CCN1CCN(c2ccc(-c3cc(C(N)=O)c4[nH]cc(C5CCN(S(=O)(=O)CC)CC5)c4c3)cn2)CC1 [Example 136, 5-[6-(4-ethyl-1-piperazinyl)-3-pyridinyl]-3-[1-(ethylsulfonyl)-4-piperidinyl]-1H-indole-7-carboxamide trifluoroacetate]	≤ 10	> 1000
CCS(=O)(=O)N1CCC(c2c[nH]c3c(C(N)=O)cc(-c4ccc(CNC(C)C)cc4)cc23)CC1 [Example 140, 3-[1-(ethylsulfonyl)-4-piperidinyl]-5-(4-{[(1-methylethyl)amino]methyl}phenyl)-1H-indole-7-carboxamide]	≤ 10	> 1000
CCS(=O)(=O)N1CCC(c2c[nH]c3c(C(N)=O)cc(-c4ccc(CNC5CCCC5)cc4)cc23)CC1 [Example 143, 5-{4-[(cyclopentylamino)methyl]phenyl}-3-[1-(ethylsulfonyl)-4-piperidinyl]-1H-indole-7-carboxamide trifluoroacetate]	≤ 10	> 1000
CCS(=O)(=O)N1CCC(c2c[nH]c3c(C(N)=O)cc(-c4ccc(CN(C)C)cc4)cc23)CC1 [Example 146, 5-{4-[(dimethylamino)methyl]phenyl}-3-[1-(ethylsulfonyl)-4-piperidinyl]-1H-indole-7-carboxamide]	≤ 10	> 1000
CCN(CC)Cc1ccc(-c2cc(C(N)=O)c3[nH]cc(C4CCN(S(=O)(=O)CC)CC4)c3c2)cc1 [Example 147, 5-{4-[(diethylamino)methyl]phenyl}-3-[1-(ethylsulfonyl)-4-piperidinyl]-1H-indole-7-carboxamide]	≤ 10	> 1000
CCS(=O)(=O)N1CCC(c2c[nH]c3c(C(N)=O)cc(-c4ccc(CNC(CO)CO)cc4)cc23)CC1 [Example 153, 3-[1-(ethylsulfonyl)-4-piperidinyl]-5-[4-({[2-hydroxy-1-(hydroxymethyl)ethyl]amino}methyl)phenyl]-1H-indole-7-carboxamide trifluoroacetate]	≤ 10	> 1000
CCS(=O)(=O)N1CCC(c2c[nH]c3c(C(N)=O)cc(-c4ccc(CNC(=O)C5CC5)cc4)cc23)CC1 [Example 158, 5-(4-{[(cyclopropylcarbonyl)amino]methyl}phenyl)-3-[1-(ethylsulfonyl)-4-piperidinyl]-1H-indole-7-carboxamide]	≤ 10	> 1000
CCS(=O)(=O)N1CCC(c2c[nH]c3c(C(N)=O)cc(-c4ccc(CNC(=O)C5CCC5)cc4)cc23)CC1 [Example 159, 5-(4-{[(cyclobutylcarbonyl)amino]methyl}phenyl)-3-[1-(ethylsulfonyl)-4-piperidinyl]-1H-indole-7-carboxamide]	≤ 10	> 1000

Next, values leading:

IC50 [1] [µM]	IC50 [2] [nM]	SMILES
≤ 10	> 1000	CCS(=O)(=O)N1CCC(c2c[nH]c3c(C(N)=O)cc(-c4ccc(CNC(=O)c5cc(C)nn5C(C)(C)C)cc4)cc23)CC1 [Example 128, 5-{4-[({[1-(1,1-dimethylethyl)-3-methyl-1H-pyrazol-5-yl]carbonyl}amino)methyl]phenyl}-3-[1-(ethylsulfonyl)-4-piperidinyl]-1H-indole-7-carboxamide trifluoroacetate]
≤ 10	≤ 1500	CCS(=O)(=O)N1CCC(c2c[nH]c3c(C(N)=O)cc(-c4ccc(CNC(=O)c5ccncc5)cc4)cc23)CC1 [Example 129, 3-[1-(ethylsulfonyl)-4-piperidinyl]-5-(4-{[(4-pyridinylcarbonyl)amino]methyl}phenyl)-1H-indole-7-carboxamide]
≤ 10	≤ 1500	CCS(=O)(=O)N1CCC(c2c[nH]c3c(C(N)=O)cc(-c4ccc(CNC(=O)C5CCCC5)cc4)cc23)CC1 [Example 130, 5-(4-{[(cyclopentylcarbonyl)amino]methyl}phenyl)-3-[1-(ethylsulfonyl)-4-piperidinyl]-1H-indole-7-carboxamide]
≤ 10	≤ 1500	CCS(=O)(=O)N1CCC(c2c[nH]c3c(C(N)=O)cc(-c4ccc(CNC(=O)c5ccco5)cc4)cc23)CC1 [Example 131, 3-[1-(ethylsulfonyl)-4-piperidinyl]-5-(4-{[(2-furanylcarbonyl)amino]methyl}phenyl)-1H-indole-7-carboxamide]
≤ 10	≤ 1500	CCS(=O)(=O)N1CCC(c2c[nH]c3c(C(N)=O)cc(-c4ccc(CNC)cc4)cc23)CC1 [Example 139, 3-[1-(ethylsulfonyl)-4-piperidinyl]-5-{4-[(methylamino)methyl]phenyl}-1H-indole-7-carboxamide trifluoroacetate]
≤ 10	≤ 1500	CCCNCc1ccc(-c2cc(C(N)=O)c3[nH]cc(C4CCN(S(=O)(=O)CC)CC4)c3c2)cc1 [Example 141, 3-[1-(ethylsulfonyl)-4-piperidinyl]-5-{4-[(propylamino)methyl]phenyl}-1H-indole-7-carboxamide trifluoroacetate]
≤ 10	≤ 1500	CCS(=O)(=O)N1CCC(c2c[nH]c3c(C(N)=O)cc(-c4ccc(CNC5CCC5)cc4)cc23)CC1 [Example 144, 5-{4-[(cyclobutylamino)methyl]phenyl}-3-[1-(ethylsulfonyl)-4-piperidinyl]-1H-indole-7-carboxamide]
≤ 10	≤ 1500	CCS(=O)(=O)N1CCC(c2c[nH]c3c(C(N)=O)cc(-c4ccc(CN[C@H](C)CO)cc4)cc23)CC1 [Example 151, 3-[1-(ethylsulfonyl)-4-piperidinyl]-5-[4-({[(1R)-2-hydroxy-1-methylethyl]amino}methyl)phenyl]-1H-indole-7-carboxamide trifluoroacetate]
≤ 10	≤ 1500	CCCC(C)NCc1cccc(-c2cc(C(N)=O)c3[nH]cc(C4CCN(S(=O)(=O)CC)CC4)c3c2)c1 (stereo not drawn) [Example 154, 3-[1-(ethylsulfonyl)-4-piperidinyl]-5-(3-{[(1-methylbutyl)amino]methyl}phenyl)-1H-indole-7-carboxamide trifluoroacetate]
≤ 10	≤ 1500	CC[C@@H](C)NCc1cccc(-c2cc(C(N)=O)c3[nH]cc(C4CCN(S(=O)(=O)CC)CC4)c3c2)c1 [Example 155, 3-[1-(ethylsulfonyl)-4-piperidinyl]-5-[3-({[(1R)-1-methylpropyl]amino}methyl)phenyl]-1H-indole-7-carboxamide trifluoroacetate]
≤ 10	≤ 1500	CCS(=O)(=O)N1CCC(c2c[nH]c3c(C(N)=O)cc(-c4cccc(CNCC(C)C)c4)cc23)CC1 [Example 156, 3-[1-(ethylsulfonyl)-4-piperidinyl]-5-(3-{[(2-methylpropyl)amino]methyl}phenyl)-1H-indole-7-carboxamide]
≤ 10	≤ 1500	CC[C@H](C)NCc1cccc(-c2cc(C(N)=O)c3[nH]cc(C4CCN(S(=O)(=O)CC)CC4)c3c2)c1 [Example 157, 3-[1-(ethylsulfonyl)-4-piperidinyl]-5-[3-({[(1S)-1-methylpropyl]amino}methyl)phenyl]-1H-indole-7-carboxamide acetate]
≤ 10	≤ 1500	CCS(=O)(=O)N1CCC(c2c[nH]c3c(C(N)=O)cc(-c4ccc(CNC(=O)Cc5cccs5)cc4)cc23)CC1 [Example 160, 3-[1-(ethylsulfonyl)-4-piperidinyl]-5-(4-{[(2-thienylacetyl)amino]methyl}phenyl)-1H-indole-7-carboxamide]
